Assay results: patent US20050063989A1, “Ion channel hybrid proteins as electrical sensors and use thereof” (COMMISSARIAT A L'ENERGIE ATOMIQUE, priority 2003, published 2005)
One block for each molecule: values may come before it.

Columns and labels:
SUR2A-Kir6.2 channels = molecular target: T1, SUR2A-Kir6.2 channels (Rattus norvegicus, UniProt Q63563); experiment: Inside-out patch-clamp of SUR2A-Kir6.2 fusion channels expressed in Xenopus oocytes; assay type: cell-based, mouse Kir6.2; conditions: for Effect of K-channel opener on SUR2A-Kir6.2 channels: opener 10 μM, in the presence of partially-inhibiting ATP (100 μM), -50 mV
T1 construct: expressed in transfected cells; host or cells: Xenopus laevis oocytes injected with in vitro transcribed mRNA; excised inside-out patches
T1 sequence (Q63563 with tags, fused parts or gaps): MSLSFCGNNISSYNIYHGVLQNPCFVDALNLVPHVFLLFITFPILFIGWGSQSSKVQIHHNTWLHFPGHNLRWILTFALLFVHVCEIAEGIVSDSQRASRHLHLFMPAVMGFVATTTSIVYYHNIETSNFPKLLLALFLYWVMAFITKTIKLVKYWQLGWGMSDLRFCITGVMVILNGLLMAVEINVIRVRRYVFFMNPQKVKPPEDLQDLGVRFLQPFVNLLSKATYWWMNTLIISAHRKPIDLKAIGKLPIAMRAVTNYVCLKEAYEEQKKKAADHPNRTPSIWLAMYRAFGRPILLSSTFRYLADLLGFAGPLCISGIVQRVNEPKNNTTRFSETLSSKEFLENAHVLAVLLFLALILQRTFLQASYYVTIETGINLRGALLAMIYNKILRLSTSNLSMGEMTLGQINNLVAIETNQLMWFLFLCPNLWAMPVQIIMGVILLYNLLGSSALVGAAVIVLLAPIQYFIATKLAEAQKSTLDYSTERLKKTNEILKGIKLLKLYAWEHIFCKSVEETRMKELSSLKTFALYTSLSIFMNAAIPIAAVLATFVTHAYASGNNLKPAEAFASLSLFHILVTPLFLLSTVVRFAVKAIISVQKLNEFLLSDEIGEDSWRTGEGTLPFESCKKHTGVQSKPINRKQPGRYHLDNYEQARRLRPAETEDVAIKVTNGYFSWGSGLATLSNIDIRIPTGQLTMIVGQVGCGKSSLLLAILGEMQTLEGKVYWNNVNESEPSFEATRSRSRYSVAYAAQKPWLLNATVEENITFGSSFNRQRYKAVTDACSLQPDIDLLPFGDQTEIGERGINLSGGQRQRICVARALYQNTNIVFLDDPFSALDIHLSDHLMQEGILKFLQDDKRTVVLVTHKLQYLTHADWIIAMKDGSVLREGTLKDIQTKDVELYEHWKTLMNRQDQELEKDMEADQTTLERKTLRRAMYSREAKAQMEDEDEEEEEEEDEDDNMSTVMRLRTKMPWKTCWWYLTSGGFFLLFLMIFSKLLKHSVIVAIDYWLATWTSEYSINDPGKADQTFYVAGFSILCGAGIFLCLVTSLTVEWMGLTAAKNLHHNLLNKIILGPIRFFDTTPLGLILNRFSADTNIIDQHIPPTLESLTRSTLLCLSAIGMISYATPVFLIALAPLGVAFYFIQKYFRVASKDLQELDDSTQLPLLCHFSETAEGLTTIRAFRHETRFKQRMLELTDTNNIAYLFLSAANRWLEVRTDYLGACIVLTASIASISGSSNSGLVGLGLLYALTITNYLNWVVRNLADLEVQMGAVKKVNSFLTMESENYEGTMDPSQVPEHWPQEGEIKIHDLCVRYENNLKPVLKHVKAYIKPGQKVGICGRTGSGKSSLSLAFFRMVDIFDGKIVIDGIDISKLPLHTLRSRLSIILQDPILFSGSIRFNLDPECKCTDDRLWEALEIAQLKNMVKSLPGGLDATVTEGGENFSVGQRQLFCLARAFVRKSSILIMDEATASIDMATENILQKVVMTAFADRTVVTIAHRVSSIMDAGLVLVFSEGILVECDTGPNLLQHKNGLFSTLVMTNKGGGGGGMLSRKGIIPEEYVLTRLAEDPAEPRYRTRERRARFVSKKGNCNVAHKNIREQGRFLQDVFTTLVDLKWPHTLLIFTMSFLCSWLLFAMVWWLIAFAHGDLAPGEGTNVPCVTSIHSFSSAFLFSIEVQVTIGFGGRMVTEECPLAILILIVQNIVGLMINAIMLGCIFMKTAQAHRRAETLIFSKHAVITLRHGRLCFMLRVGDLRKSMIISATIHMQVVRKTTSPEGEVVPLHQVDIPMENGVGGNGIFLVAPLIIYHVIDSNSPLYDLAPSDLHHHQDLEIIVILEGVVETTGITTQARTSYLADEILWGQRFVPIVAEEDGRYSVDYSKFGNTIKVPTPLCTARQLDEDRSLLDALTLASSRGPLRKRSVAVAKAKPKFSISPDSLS
Procedure: (§1) mRNAs coding Kir6.2 (˜2 ng) and wild-type SURs (˜6 ng) or mRNAs coding the fusion constructs (˜8 ng) were co-injected into defoliculated Xenopus laevis oocytes. Injected oocytes were stored at 19° C. in Barth's solution (in mM: 1 KCl, 0.82 MgSO4, 88 NaCl, 2.4 NaHCO3, 0.41 CaCl2, 0.3 Ca(NO3)2, 16 HEPES, pH 7.4) with 100 U/ml penicillin, 100 μg/ml streptomycin, and 100 μg/ml gentamycin.
(§2) Two to 15 days after injection, oocytes were devitellinized and recombinant KATP channels were characterized by the patch-clamp technique in the excised inside-out configuration (Hamill et al., Arch. Eur. J. Physiol., 1981, 391, 85-100). Patch pipettes (2-10 MΩ) contained 154 mM K^+, 146 mM Cl^−, 5 MM Mg^2+, and 10 mM PIPES (pH 7.1). The cytoplasmic face of the patch was bathed in solutions which all contained 174 mM K^+, 40 mM Cl^−, 1 mM EGTA, 1 Mg^2+, 10 mM PIPES (pH 7.1), and methanesulfonate (approximately, 160 mM, depending on the ATP and ADP amounts added—as the remaining anions. ATP and ADP (potassium salt; Sigma), SR47063 (20 mM stock in DMSO; Sanofi Recherche), diazoxide (100 mM stock in DMSO; Sigma) and P1075 (20 mM stock in DMSO; Leo Pharmaceutical Products) were added as specified. The membrane potential was maintained at −50 mV. Experiments were conducted at room temperature (22-24° C.).
(§3) Applications of the various solutions to the intracellular face of the patch was performed using a RSC-100 rapid-solution-changer (Bio-Logic). Analog signals were filtered at 300 Hz and sampled at 1 kHz. Slow fluctuations of the no-channel-open baseline of the signal were removed by interactive fitting of the baseline with a spline curve and subtraction of this fit from the signal. Acquisition, analysis, and presentation were performed with in-house software.

SUR1-Kir6.2 channels = molecular target: T2, SUR1-Kir6.2 channels (UniProt Q09427+Q61743); experiment: Inside-out patch-clamp of SUR1-Kir6.2 fusion channels expressed in Xenopus oocytes; assay type: cell-based, hamster SUR1, mouse Kir6.2
T2 construct: expressed in transfected cells; host or cells: Xenopus laevis oocytes injected with in vitro transcribed mRNA; excised inside-out patches
T2 sequence (Q09427+Q61743 fused): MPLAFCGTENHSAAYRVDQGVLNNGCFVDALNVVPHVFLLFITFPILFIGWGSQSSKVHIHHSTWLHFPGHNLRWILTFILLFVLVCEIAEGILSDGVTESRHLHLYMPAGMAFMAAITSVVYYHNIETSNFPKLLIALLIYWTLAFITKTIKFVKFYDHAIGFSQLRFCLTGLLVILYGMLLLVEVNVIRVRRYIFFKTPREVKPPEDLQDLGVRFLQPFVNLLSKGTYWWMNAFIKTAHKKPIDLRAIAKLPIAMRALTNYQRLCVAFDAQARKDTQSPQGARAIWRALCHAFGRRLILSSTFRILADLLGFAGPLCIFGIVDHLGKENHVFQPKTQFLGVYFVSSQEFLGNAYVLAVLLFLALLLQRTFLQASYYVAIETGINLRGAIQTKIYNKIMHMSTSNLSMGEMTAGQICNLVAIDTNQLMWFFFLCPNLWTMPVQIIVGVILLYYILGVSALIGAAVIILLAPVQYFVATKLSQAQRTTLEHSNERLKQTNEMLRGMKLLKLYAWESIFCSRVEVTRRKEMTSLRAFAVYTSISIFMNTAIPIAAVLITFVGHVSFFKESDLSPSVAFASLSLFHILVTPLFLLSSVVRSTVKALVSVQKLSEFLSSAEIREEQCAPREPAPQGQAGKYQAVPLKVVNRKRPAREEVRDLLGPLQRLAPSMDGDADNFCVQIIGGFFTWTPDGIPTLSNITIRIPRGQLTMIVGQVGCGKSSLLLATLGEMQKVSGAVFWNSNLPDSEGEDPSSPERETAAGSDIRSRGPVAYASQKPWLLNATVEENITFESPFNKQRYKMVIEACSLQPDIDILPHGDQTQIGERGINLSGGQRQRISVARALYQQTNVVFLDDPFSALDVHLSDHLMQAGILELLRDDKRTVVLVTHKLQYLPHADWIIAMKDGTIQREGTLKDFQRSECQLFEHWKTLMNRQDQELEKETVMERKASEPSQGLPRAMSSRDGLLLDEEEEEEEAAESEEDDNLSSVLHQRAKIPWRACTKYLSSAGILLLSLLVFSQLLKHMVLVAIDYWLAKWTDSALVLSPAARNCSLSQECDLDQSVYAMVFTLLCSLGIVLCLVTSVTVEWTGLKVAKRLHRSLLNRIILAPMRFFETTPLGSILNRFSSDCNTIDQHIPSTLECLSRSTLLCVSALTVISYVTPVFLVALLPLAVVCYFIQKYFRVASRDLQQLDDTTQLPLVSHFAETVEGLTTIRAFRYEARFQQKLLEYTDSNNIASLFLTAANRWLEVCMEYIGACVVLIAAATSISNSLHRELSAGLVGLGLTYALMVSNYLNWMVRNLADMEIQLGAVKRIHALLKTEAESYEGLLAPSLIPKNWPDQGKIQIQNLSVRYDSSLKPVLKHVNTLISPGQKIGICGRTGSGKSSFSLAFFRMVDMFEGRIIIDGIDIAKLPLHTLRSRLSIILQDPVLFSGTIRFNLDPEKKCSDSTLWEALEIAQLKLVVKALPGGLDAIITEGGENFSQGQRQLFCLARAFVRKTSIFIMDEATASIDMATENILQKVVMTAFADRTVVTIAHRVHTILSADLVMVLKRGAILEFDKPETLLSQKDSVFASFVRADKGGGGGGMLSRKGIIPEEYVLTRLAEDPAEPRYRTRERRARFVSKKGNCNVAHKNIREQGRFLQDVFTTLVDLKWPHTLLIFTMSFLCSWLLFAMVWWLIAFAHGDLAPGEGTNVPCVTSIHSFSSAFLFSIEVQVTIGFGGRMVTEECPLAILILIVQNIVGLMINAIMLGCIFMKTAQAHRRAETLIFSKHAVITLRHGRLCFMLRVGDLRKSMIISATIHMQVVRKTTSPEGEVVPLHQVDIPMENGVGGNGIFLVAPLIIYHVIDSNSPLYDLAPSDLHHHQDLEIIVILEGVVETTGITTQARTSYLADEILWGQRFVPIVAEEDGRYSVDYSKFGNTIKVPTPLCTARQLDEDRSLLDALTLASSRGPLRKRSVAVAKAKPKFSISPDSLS
Procedure: as §1, §2, §3

MRP1-Kir6.2KR370AA = experiment: Inside-out patch-clamp of MRP1-Kir6.2KR370AA channels expressed in Xenopus oocytes; assay type: cell-based, human MRP1, mouse Kir6.2; conditions: compared with MRP1-Kir6.2
Description: (§4) Removal of the RKR endoplasmic reticulum retention signal of Kir6.2 was accomplished either by deletion of the last 26 or 36 residues of the C-terminal extremity (Tucker et al., Nature, 1997, 387: 179-183) through introduction of a premature stop codon at the correct position, or by site-directed mutagenesis of RKR to RAA (i.e., K370A and R371A). The resulting constructs, named Kir6.2Δ26, Kir6.2ΔC36, and Kir6.2KR370AA, were created by mutagenesis amplification (QuickChange site-directed mutagenesis kit, Stratagene). The sequences corresponding to the different constructs are as presented in Table 1: SUR2A-Kir6.2ΔC36 (SEQ ID NO: 3), MRP1-Kir6.2ΔC36 (SEQ ID NO: 4), YCF1-Kir6.2ΔC36 (SEQ ID NO: 5) and MRP1-Kir6.2[KR370AA] (SEQ ID NO: 6).
as §1
(§5) Two to 15 days after injection, oocytes were devitellinized and recombinant KATP channels were characterized by the patch-clamp technique in the excised inside-out configuration (Hamill et al., Arch. Eur. J. Physiol., 1981, 391, 85-100). […]

MRP1-Kir6.2 channels = molecular target: T3, MRP1-Kir6.2 channels (Homo sapiens, UniProt P33527, M117T); experiment: Inside-out patch-clamp of MRP1-Kir6.2 fusion channels expressed in Xenopus oocytes; assay type: cell-based, mouse Kir6.2
T3 construct: expressed in transfected cells; host or cells: Xenopus laevis oocytes injected with in vitro transcribed mRNA; excised inside-out patches
Procedure: as §1
as §2, with “C.). […]” for “C.).”

Kir6.2ΔC36 channels = molecular target: T4, Kir6.2ΔC36 channels (Mus musculus, UniProt Q61743); experiment: Inside-out patch-clamp of Kir6.2ΔC36 channels expressed alone in Xenopus oocytes; assay type: cell-based
T4 construct: expressed in transfected cells; host or cells: Xenopus laevis oocytes; excised inside-out patches
T4 sequence (Q61743 1-354 limits assumed): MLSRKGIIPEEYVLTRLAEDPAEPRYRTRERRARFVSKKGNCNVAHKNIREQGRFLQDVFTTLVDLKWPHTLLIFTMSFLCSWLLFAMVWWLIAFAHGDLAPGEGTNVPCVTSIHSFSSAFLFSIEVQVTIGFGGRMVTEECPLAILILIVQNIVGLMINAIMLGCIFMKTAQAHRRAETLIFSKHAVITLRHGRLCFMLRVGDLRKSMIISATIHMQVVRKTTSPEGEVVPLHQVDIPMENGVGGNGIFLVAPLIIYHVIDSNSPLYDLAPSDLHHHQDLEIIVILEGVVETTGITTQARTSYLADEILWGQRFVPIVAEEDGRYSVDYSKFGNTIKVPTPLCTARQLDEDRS
Description: as §4, §1, §5

YCF1-Kir6.2ΔC36 = molecular target: T5, YCF1-Kir6.2ΔC36 (UniProt P39109+Q61743); experiment: Inside-out patch-clamp of YCF1-Kir6.2ΔC36 channels expressed in Xenopus oocytes; assay type: cell-based, yeast YCF1, mouse Kir6.2
T5 construct: expressed in transfected cells; host or cells: Xenopus laevis oocytes injected with in vitro transcribed mRNA; excised inside-out patches
Description: as §4, §1, §5

Xenopus oocytes = experiment: Density of active fusion channels: ATP-inhibitable current after patch excision; assay type: cell-based, Xenopus laevis
Procedure: as §1, §2, §3

[1] = ADP at submillimolar concentrations
[2] = total current blocked by 2 mM ATP after patch excision

Effect of K-channel opener on SUR2A-Kir6.2 channels (SUR2A-Kir6.2 channels): activated
Molecule: CC1(C)C=C(n2ccccc2=NC#N)c2cc([N+](=O)[O-])ccc2O1 [SR47063]

Molecule: Nc1ncnc2c1ncn2[C@@H]1O[C@H](COP(=O)(O)OP(=O)(O)O)[C@@H](O)[C@H]1O [ADP]
Effect of ADP on SUR1-Kir6.2 fusion channels (SUR1-Kir6.2 channels; [1]): activation
Sensitivity of MRP1-Kir6.2KR370AA to ADP (MRP1-Kir6.2KR370AA): could not be distinguished from the non-mutated MRP1-Kir6.2 protein
Effect of ADP on MRP1-Kir6.2 currents (MRP1-Kir6.2 channels; ADP 100 μM and 300 μM, in the presence of 100 μM ATP): reduced in a dose-dependent manner
Effect of ADP on Kir6.2ΔC36 (SUR-less) channels (Kir6.2ΔC36 channels): inhibited
Effect of ADP on SUR2A-Kir6.2 fusion channels (SUR2A-Kir6.2 channels; [1]): activation

Molecule: Nc1ncnc2c1ncn2[C@@H]1O[C@H](COP(=O)(O)OP(=O)(O)OP(=O)(O)O)[C@@H](O)[C@H]1O [ATP]
Sensitivity of SUR1-Kir6.2 channels to ATP (SUR1-Kir6.2 channels): high sensitivity
Sensitivity of MRP1-Kir6.2KR370AA to ATP (MRP1-Kir6.2KR370AA): could not be distinguished from the non-mutated MRP1-Kir6.2 protein
Sensitivity of MRP1-Kir6.2 channels to inhibition by ATP (MRP1-Kir6.2 channels): less sensitive to inhibition by ATP than either SUR-Kir6.2 fusions or wild-type channels
Sensitivity of SUR2A-Kir6.2 channels to ATP (SUR2A-Kir6.2 channels): high sensitivity
Effect of ATP on YCF1-Kir6.2ΔC36 currents (YCF1-Kir6.2ΔC36): ATP-sensitive currents

Effect of K-channel opener on SUR2A-Kir6.2 channels (SUR2A-Kir6.2 channels): activated
Molecule: CCC(C)(C)N=C(NC#N)Nc1cccnc1 [P1075]

Molecule: YCF1-Kir6.2: fusion of yeast YCF1 with mouse Kir6.2, hexaglycine spacer
ATP-inhibitable current of the construct after patch excision (Xenopus oocytes): no detectable exogenous current

Molecule: CC1=NS(=O)(=O)c2cc(Cl)ccc2N1 [diazoxide]
Effect of opener on SUR1-Kir6.2 channels (SUR1-Kir6.2 channels; diazoxide 300 μM): activated

Molecule: YCF1-Kir6.2ΔC36: YCF1-Kir6.2 fusion with last 36 residues truncated to remove the RKR signal
ATP-inhibitable current of the construct after patch excision (Xenopus oocytes): noticeably small compared to the other constructs

Molecule: MRP1-Kir6.2: fusion of human MRP1 C-terminus to mouse Kir6.2 N-terminus with hexaglycine spacer
Patch current, fold lower than SUR1-Kir6.2 (Xenopus oocytes; [2]): 7 fold
Patch current, fold lower than SUR2A-Kir6.2 (Xenopus oocytes; [2]): 5 fold
